According to patent US11560372B2, “Heterocyclic compounds useful as modulators of acetylcholine receptors” (TAKEDA PHARMACEUTICAL COMPANY LIMITED, priority 2017, dated 2023):

Key:
[1] = biological target: T1, human M1 receptor (hCHRM1) (Homo sapiens, UniProt P11229); assay: Measurement of M1 receptor positive allosteric modulator (M1PAM) activity, calcium fluorescence in CHO-K1 cells; format: cell-based; details: for activity (%) at 10 μM: 10 μM test compound, 100% = acetylcholine final concentration 1 μM, 0% = DMSO; for EC50: inflection point of concentration-dependent curve, in the presence of acetylcholine at EC20 concentration (final 0.8-1.0 nM), read-out: IP value
T1 construct: expressed in transfected cells
T1 sequence (P11229 1-460): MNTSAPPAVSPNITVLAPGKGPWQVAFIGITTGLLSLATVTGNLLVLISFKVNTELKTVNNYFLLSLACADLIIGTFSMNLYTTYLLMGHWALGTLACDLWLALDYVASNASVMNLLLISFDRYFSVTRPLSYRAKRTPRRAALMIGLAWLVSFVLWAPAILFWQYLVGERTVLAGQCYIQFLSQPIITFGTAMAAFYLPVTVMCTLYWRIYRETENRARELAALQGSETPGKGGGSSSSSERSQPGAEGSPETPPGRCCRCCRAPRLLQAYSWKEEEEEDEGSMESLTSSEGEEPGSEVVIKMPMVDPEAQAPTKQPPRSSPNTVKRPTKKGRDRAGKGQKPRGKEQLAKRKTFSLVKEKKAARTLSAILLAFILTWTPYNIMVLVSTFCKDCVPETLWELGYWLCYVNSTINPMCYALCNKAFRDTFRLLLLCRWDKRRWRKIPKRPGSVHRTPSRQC
Protocol: Measurement of M1 Receptor Positive Allosteric Modulator (M1PAM) Activity
The activity of a test compound in the presence of acetylcholine at EC20 concentration (final concentration 0.8-1.0 nM), which affords an action corresponding to about 20% of the maximum activity, was measured as PAM activity. The method is as follows. CHO-K1 cells stably expressing a human M1 receptor (hCHRM1) were plated on a 384-well black clear bottom plate (BD Falcon) at 5,000 cells/well, and cultured in an incubator at 37° C., 5% CO2 for 1 day. The medium in the cell plate was removed, and assay buffer A containing calcium indicator (Recording medium (DOJINDO LABORATORIES), 0.1% BSA (Wako Pure Chemical Industries, Ltd.), 2.5 μg/mL Fluo-4 AM (DOJINDO LABORATORIES), 0.08% Pluronic F127 (DOJINDO LABORATORIES), 1.25 mM probenecid (DOJINDO LABORATORIES)) was added at 30 μL/well. The cells were left standing in the incubator at 37° C., 5% CO2 for 30 min, and further left standing at room temperature for 30 min. A test compound prepared by diluting with assay buffer B (HBSS (Invitrogen), 20 mM HEPES (Invitrogen), 0.1% BSA) containing 3.2-4.0 nM acetylcholine was added at 10 μL/well, and the fluorescence was measured by FDSS/pCELL (Hamamatsu Photonics K.K.) for 1 min every for 1 second. With the definition that the amount of change in the fluorescence on addition of acetylcholine (final concentration 1 μM) is 100% and that on addition of DMSO instead of a test compound is 0%, the activity (%) of the test compound was calculated, and the inflection point in the concentration-dependent curve of the test compound was calculated as IP values.

[2] = biological target: T2, MDR1 (Homo sapiens, UniProt P08183); assay: MDR1 membrane permeability test; format: in vitro ADME; details: pH 7.4, efflux ratio (ER), Papp B to A / A to B, human MDR1-expressing LLC-PK1 cells, read-out: MDR1 substrate screening 1 μM (MDRSUB1)/Ratio (NUMBER)
T2 construct: expressed in transfected cells
Protocol: MDR1 Membrane Permeability Test
When MDR1 is expressed in excess in LLC-PK1 cell, which is a polar cell, MDR1 is localized in apical membrane (A), thus promoting transcellular transport from the basement membrane side (B) toward direction A. When a ratio to the transcellular transport in the opposite direction is taken and a ratio to a control cell in which a mock vector has been introduced is further taken, an efflux ratio of MDR1 to simple diffusion (corrected efflux ratio) is calculated. Similarly, when a brain/plasma concentration ratio in Mdr1(−/−) mouse is divided by a brain/plasma concentration ratio in wild-type mouse, an efflux ratio of Mdr1 to simple diffusion in BBB (Kp, brain ratio, higher value means lower central nervous system permeability) is calculated. Adachi Y. et al. (Reference 1) has reported a positive correlation between corrected efflux ratio and Kp, brain ratio (FIG. 5(C)), and efflux ratio in MDR1 expressing cell and Kp, brain ratio (FIG. 5(B)).
To confirm the central nervous system permeability of the compounds of the present invention, a MDR1 membrane permeability test was performed by the following method.
Human MDR1-expressing LLC-PK1 cells were cultured according to the report of Takeuchi et al. (Reference 2). Human MDR1-expressing LLC-PK1 cells were cultured in 10% fetal bovine serum (Invitrogen), 500 μg/ml G418 (Invitrogen), 150 ng/ml colchicine-containing M199 medium (Invitrogen) under 5% CO2 conditions at 37° C.
Transcellular transport was performed according to the report of Sugimoto et al. (Reference 3). The cells were cultured for 3 days on HTS Transwell (registered trademark) 96 well permeable support (pore size 0.4 μm, 0.143 cm^2 surface area, Corning Life Sciences) having polyethylene terephthalate membrane on which the cells had been seeded at 3.45×10^4 cells/well. After preincubation in M199 medium (containing 10 mmol/L HEPES, 1% BSA, pH 7.4) for 30 min, a drug solution (10 μmol/L digoxin, 200 μmol/L LY, […]) dissolved in M199 medium was added to the apical side or basolateral side of the Transwell by 75 or 250 μL each and the cells were cultured under 5% CO2 conditions at 37° C. After 1 hr, the sample was collected from the side opposite to the side where the drug solution was added, and the concentration of the test compound was measured by LC-MS/MS. As an internal standard substance, 100 ng/mL alprenolol and diclofenac were used. The analysis conditions were as follows.
Papp, A to B and Papp, B to A (apparent permeability) were calculated from the formula (1), and the efflux ratio (ER) was calculated from the formula (2).

T2 sequence (P08183 whole entry): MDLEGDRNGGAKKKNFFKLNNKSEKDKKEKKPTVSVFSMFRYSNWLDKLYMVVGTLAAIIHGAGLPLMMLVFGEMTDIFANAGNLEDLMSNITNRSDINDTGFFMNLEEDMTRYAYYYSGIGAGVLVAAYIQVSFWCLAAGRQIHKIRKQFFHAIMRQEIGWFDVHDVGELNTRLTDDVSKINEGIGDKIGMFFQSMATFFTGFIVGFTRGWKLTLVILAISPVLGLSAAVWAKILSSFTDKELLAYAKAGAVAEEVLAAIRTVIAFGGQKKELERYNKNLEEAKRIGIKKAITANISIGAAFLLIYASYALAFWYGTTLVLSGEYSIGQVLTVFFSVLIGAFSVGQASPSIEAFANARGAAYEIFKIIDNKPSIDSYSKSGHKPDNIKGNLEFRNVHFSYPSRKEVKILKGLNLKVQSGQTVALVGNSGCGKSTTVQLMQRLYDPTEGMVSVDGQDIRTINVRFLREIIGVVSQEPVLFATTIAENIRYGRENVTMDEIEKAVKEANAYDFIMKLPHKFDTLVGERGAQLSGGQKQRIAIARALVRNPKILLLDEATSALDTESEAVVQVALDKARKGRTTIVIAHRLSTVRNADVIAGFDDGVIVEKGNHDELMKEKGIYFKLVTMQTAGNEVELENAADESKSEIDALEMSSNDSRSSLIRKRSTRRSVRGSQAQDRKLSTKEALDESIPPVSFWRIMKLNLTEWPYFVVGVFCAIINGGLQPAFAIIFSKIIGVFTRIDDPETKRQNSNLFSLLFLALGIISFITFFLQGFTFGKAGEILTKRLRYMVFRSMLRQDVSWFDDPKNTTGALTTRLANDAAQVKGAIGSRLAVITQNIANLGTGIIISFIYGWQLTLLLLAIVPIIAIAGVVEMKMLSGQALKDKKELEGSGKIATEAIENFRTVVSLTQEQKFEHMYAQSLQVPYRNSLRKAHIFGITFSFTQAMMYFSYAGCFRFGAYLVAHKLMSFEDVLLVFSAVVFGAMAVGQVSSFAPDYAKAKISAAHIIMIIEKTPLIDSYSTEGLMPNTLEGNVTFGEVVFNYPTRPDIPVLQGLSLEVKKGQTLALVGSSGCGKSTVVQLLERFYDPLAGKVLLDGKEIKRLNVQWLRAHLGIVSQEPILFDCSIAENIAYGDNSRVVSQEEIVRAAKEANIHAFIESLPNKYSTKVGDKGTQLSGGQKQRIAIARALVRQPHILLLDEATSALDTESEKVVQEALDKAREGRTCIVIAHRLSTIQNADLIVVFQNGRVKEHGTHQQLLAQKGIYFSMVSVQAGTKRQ

| Compound | activity (%) at 10 μM [1] [%] | EC50 [1] [nM] | efflux ratio at 1 hr, 1 μM [2] |
| --- | --- | --- | --- |
| Cc1c(Cc2ccc(C(=O)NCC(C)(C)O)cc2)cc2c(=O)n([C@H]3CCOC[C@@H]3O)cnc2c1C [Example 39, 1,5-anhydro-2,3-dideoxy-3-(6-(4-((2-hydroxy-2-methylpropyl)carbamoyl)benzyl)-7,8-dimethyl-4-oxoquinazolin-3 (4H)-yl)-L-threo-pentitol] | 112 | 3.3 | – |
| Cc1c(Cc2ccc(C(=O)NC3(C)COC3)c(F)c2)cc2c(=O)n([C@H]3CCOC[C@@H]3O)cnc2c1C [Example 65, 1,5-anhydro-2,3-dideoxy-3-(6-(3-fluoro-4-((3-methyloxetan-3-yl)carbamoyl)benzyl)-7,8-dimethyl-4-oxoquinazolin-3 (4H)-yl)-L-threo-pentitol] | 109 | 3 | 15 |
| Cc1c(Cc2ccc(-c3cnn(C)c3)nc2)cc2c(=O)n([C@H]3CCOC[C@@H]3O)nnc2c1Cl [Example 54, 1,5-anhydro-3-(8-chloro-7-methyl-6-((6-(1-methyl-1H-pyrazol-4-yl)pyridin-3-yl)methyl)-4-oxo-1,2,3-benzotriazin-3 (4H)-yl)-2,3-dideoxy-L-threo-pentitol] | 106 | 0.99 | 9.5 |
| Cc1c(Cc2ccc(C(=O)NCC3COC3)c(F)c2)cc2c(=O)n([C@H]3CCOC[C@@H]3O)cnc2c1C [Example 79, 1,5-anhydro-2,3-dideoxy-3-(6-(3-fluoro-4-((oxetan-3-ylmethyl)carbamoyl)benzyl)-7,8-dimethyl-4-oxoquinazolin-3 (4H)-yl)-L-threo-pentitol] | 108 | 1.5 | 26 |
| Cc1c(Cc2ccc(-c3cn(C)nn3)nc2)cc2c(=O)n([C@H]3CCOC[C@@H]3O)nnc2c1C [Example 62, 1,5-anhydro-2,3-dideoxy-3-(7,8-dimethyl-6-((6-(1-methyl-1H-1,2,3-triazol-4-yl)pyridin-3-yl)methyl)-4-oxo-1,2,3-benzotriazin-3 (4H)-yl)-L-threo-pentitol] | 107 | 2.5 | 9.4 |
| Cc1cc(-c2ccc(Cc3cc4c(=O)n([C@H]5CCOC[C@@H]5O)cnc4c(C)c3C)cc2)cnn1 [Example 4, 1,5-anhydro-2,3-dideoxy-3-(7,8-dimethyl-6-(4-(6-methylpyridazin-4-yl)benzyl)-4.-oxoquinazolin-3(4H)-yl)-L-threo-pentitol] | 101 | 2 | 5.7 |
| Cc1c(Cc2ccc(C(=O)NC3CS(=O)(=O)C3)c(F)c2)cc2c(=O)n([C@H]3CCOC[C@@H]3O)cnc2c1C [Example 83, 1,5-anhydro-2,3-dideoxy-3-(6-(4-((1,1-dioxidethietan-3-yl)carbamoyl)-3-fluorobenzyl)-7,8-dimethyl-4-oxoquinazolin-3 (4H)-yl)-L-threo-pentitol] | 109 | 1.5 | 19 |
| Cc1c(Cc2ccc(C(=O)NCCS(C)(=O)=O)c(F)c2)cc2c(=O)n([C@H]3CCOC[C@@H]3O)cnc2c1C [Example 84, 1,5-anhydro-2,3-dideoxy-3-(6-(3-fluoro-4-((2-(methylsulfonyl)ethyl)-carbamoyl)benzyl)-7,8-dimethyl-4-oxoquinazolin-3 (4H)-yl)-L-threo-pentitol] | 106 | 1.9 | 11 |
| Cc1c(Cc2ccc(C(=O)NCC(=O)N(C)C)c(F)c2)cc2c(=O)n([C@H]3CCOC[C@@H]3O)cnc2c1C [Example 68, 1,5-anhydro-2,3-dideoxy-3-(6-(4-((2-(dimethylamino)-2-oxoethyl)carbamoyl)-3-fluorobenzyl)-7,8-dimethyl-4-oxoquinazolin-3 (4H)-yl)-L-threo-pentitol] | 106 | 1.7 | 19 |
| Cc1c(Cc2ccc(C(=O)NC[C@@H]3CCCO3)c(F)c2)cc2c(=O)n([C@H]3CCOC[C@@H]3O)cnc2c1C [Example 80, 1,5-anhydro-2,3-dideoxy-3-(6-(3-fluoro-4-(((2S)-tetrahydrofuran-2-ylmethyl)carbamoyl)benzyl)-7,8-dimethyl-4-oxoquinazolin-3 (4H)-yl)-L-threo-pentitol] | 107 | 1.9 | 9.5 |
| COCCCNC(=O)c1ccc(Cc2cc3c(=O)n([C@H]4CCOC[C@@H]4O)cnc3c(C)c2C)cc1F [Example 86, 1,5-anhydro-2,3-dideoxy-3-(6-(3-fluoro-4-((3-methoxypropyl)carbamoyl)benzyl)-7,8-dimethyl-4-oxoquinazolin-3(4H)-yl)-L-threo-pentitol] | 110 | 3.1 | 7.8 |
| Cc1c(Cc2ccc(-c3cnn(C4CC4)c3)nc2)cc2c(=O)n([C@H]3CCOC[C@@H]3O)cnc2c1C [Example 56, 1,5-anhydro-3-(6-((6-(1-cyclopropyl-1H-pyrazol-4-yl)pyridin-3-yl)methyl)-7,8-dimethyl-4-oxoquinazolin-3 (4H)-yl)-2,3-dideoxy-L-threo-pentitol] | 107 | 2.1 | 4.9 |
| Cc1c(Cc2ccc(C(=O)NC3CC3)c(F)c2)cc2c(=O)n([C@H]3CCOC[C@@H]3O)cnc2c1C [Example 87, 1,5-anhydro-3-(6-(4-(cyclopropylcarbamoyl)-3-fluorobenzyl)-7,8-dimethyl-4-oxoquinazolin-3(4H)-yl)-2,3-dideoxy-L-threo-pentitol] | 111 | 2.3 | 8.7 |
| Cc1c(Cc2ccc(C(=O)NCCO)cc2)cc2c(=O)n([C@H]3CCOC[C@@H]3O)cnc2c1C [Example 50, 1,5-anhydro-2,3-dideoxy-3-(6-(4-((2-hydroxyethyl)carbamoyl)benzyl)-7,8-dimethyl-4-oxoquinazolin-3 (4H)-yl)-L-threo-pentitol] | 103 | 0.8 | 13 |
